Structures can show the parent of a compound that is named as a salt. Where two headings read alike, the source gives them in different places.
Experiments:
Aβ1-42 = Aβ1-42 (Homo sapiens, UniProt P05067); assay: Aβ1-42 self-aggregation inhibition assay (thioflavin T); format: biochemical; conditions: inhibitor 10 μM, [Aβ]/[I]=5/1
Description: As reported in a previously published protocol (cf. M. Bartolini et al., “Insight into the Kinetic of Amyloid Beta (1-42) Peptide Self-Aggregation: Elucidation of Inhibitors' Mechanism of Action. ChemBioChem 2007, vol. 8, pp. 2152-2161), HFIP pretreated Aβ1-42 samples (Bachem AG, Switzerland) were solubilized with a CH3CN/0.3 mM Na2CO3250 mM NaOH (48.4:48.4:3.2) mixture to obtain a 500 μM solution. Experiments were performed by incubating the peptide in 10 mM phosphate buffer (pH=8.0) containing 10 mM NaCl, at 30° C. for 24 h (final Aβ concentration 50 μM) with and without inhibitor (10 μM, Aβ/inhibitor=5/1). Blanks containing the tested inhibitors were also prepared and tested.

[1] = system: human recombinant AChE-induced Aβ1-40 aggregation; assay: AChE-induced Aβ1-40 aggregation inhibition assay (thioflavin T); conditions: inhibitor 100 μM
Description: Aβ1-40, supplied as trifluoroacetate salt, was purchased from Bachem AG (Germany). Aβ1-40 (2 mg mL^−1) was dissolved in HFIP, lyophilized, and then resolubilized in DMSO to get a 2.3 mM Aβ1-40 solution. 1 mM Solutions of tested inhibitors were prepared by dissolution in MeOH.
Aliquots of 2 μL Aβ1-40 peptide were incubated for 24 h at room temperature in 0.215 M sodium phosphate buffer (pH 8.0) at a final concentration of 230 μM. […] The final volume of each vial was 20 μL. Each assay was run in duplicate. To quantify amyloid fibril formation, the thioflavin T fluorescence method was then applied (cf. H. Naiki et al., “Kinetic Analysis of Amyloid Fibril Polymerization in Vitro”, Lab. Invest. 1991, vol. 65, pp. 104-110). The fluorescence intensities due to β-sheet conformation were monitored for 300 s at λem=490 nm (λexc=446 nm). The percent inhibition of the AChE-induced aggregation due to the presence of the tested compound was calculated by the following expression: 100−(IFi/IFo×100) where IFi and IFe are the fluorescence intensities obtained for Aβ plus AChE in the presence and in the absence of inhibitor, respectively, minus the fluorescence intensities due to the respective blanks.

β-Secretase (BACE-1) = β-Secretase (BACE-1) (Homo sapiens (Human), UniProt P56817); assay: β-Secretase (BACE-1) inhibition assay; format: biochemical
Description: β-Secretase (BACE-1, Sigma) inhibition studies were performed by employing a peptide mimicking APP sequence as substrate (methoxycoumarin-[…]dinitrophenyl, M-2420, Bachem). The following procedure was employed: 5 μL of test compound (or DMSO, if preparing a control well) were pre-incubated with 175 μL of the enzyme (in 20 mM sodium acetate containing CHAPS 0.1% w/v) for 1 h at room temperature. The substrate (3 μM, final concentration) was then added and left to react for 15 min. The fluorescence signal was read at λem=405 nm (λexc=320 nm). […] The fluorescence intensities with and without inhibitor were compared and the percent inhibition due to the presence of test compounds was calculated. The background signal was measured in control wells containing all the reagents, except BACE-1 and subtracted. […] Inhibition curves were obtained by plotting the % inhibition versus the logarithm of inhibitor concentration in the assay sample. The linear regression parameters were determined and the IC50 extrapolated (GraphPad Prism 4.0, GraphPad Software Inc.).

human serum BChE = human serum BChE (Homo sapiens (Human), UniProt P06276); assay: BChE inhibition assay (Ellman); format: biochemical
Description: BChE inhibitory activity determinations were carried out similarly by the method of Ellman et al., using 0.02 unit/mL of human serum BChE and 300 μM butyrylthiocholine, instead of AChE and acetylthiocholine, in a final volume of 300 μL.
(§1) Results are expressed as mean±S.E.M. of at least 4 experiments performed in duplicate. DTNB, acetylthiocholine, butyrylthiocholine, and enzymes were purchased from Sigma.

[2] = target: Electrophorus electricus (ee) AChE (Electrophorus electricus (Electric eel) (Gymnotus electricus), UniProt O42275); assay: AChE inhibition assay (Ellman), eeAChE; format: biochemical
Description: AChE inhibitory activity of compounds (Ia)-(Ie) and (−)-(Ib) and (+)-(Ib) was evaluated spectrophotometrically at 25° C. by the method of Ellman et al., using recombinant human AChE (hAChE) and Electrophorus electricus (ee) AChE and acetylthiocholine iodide as substrate (cf. G. L. Ellman et al., “New and Rapid Colorimetric Determination of Acetylcholinesterase Activity” Biochem. Pharmacol. 1961, vol. 7, pp. 88-95). For eeAChE inhibitory activity determination, the reaction took place in a final volume of 300 μL of 0.1 M phosphate-buffered solution pH 8.0, containing 0.03 unit/mL of ee AChE and 333 μM 5,5′-dithiobis(2-nitrobenzoic) acid (DTNB) solution used to produce the yellow anion of 5-thio-2-nitrobenzoic acid. Inhibition curves were performed in duplicates using at least 10 increasing concentrations of inhibitor and preincubating at 37° C. for 20 min. One duplicate sample without inhibitor was always present to yield 100% of AChE activity. Then, substrate acetylthiocholine (450 μM) was added and the reaction was developed at 37° C. for 5 min. The color production was measured at 414 nm.
as §1

β-Secretase (BACE-1), sequence (P56817 46-501): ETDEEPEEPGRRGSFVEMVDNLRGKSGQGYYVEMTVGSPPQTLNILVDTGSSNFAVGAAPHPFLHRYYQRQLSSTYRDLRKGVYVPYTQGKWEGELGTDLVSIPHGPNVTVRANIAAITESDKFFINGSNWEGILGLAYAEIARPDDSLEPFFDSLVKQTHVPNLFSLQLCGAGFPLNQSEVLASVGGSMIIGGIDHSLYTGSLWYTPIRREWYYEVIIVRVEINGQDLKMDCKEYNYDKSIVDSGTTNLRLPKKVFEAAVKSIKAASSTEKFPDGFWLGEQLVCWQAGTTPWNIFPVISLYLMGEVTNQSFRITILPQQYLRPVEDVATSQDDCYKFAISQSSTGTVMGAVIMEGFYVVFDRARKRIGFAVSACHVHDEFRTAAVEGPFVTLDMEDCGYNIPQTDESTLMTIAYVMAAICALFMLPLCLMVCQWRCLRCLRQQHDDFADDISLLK
human serum BChE, sequence (P06276 29-602): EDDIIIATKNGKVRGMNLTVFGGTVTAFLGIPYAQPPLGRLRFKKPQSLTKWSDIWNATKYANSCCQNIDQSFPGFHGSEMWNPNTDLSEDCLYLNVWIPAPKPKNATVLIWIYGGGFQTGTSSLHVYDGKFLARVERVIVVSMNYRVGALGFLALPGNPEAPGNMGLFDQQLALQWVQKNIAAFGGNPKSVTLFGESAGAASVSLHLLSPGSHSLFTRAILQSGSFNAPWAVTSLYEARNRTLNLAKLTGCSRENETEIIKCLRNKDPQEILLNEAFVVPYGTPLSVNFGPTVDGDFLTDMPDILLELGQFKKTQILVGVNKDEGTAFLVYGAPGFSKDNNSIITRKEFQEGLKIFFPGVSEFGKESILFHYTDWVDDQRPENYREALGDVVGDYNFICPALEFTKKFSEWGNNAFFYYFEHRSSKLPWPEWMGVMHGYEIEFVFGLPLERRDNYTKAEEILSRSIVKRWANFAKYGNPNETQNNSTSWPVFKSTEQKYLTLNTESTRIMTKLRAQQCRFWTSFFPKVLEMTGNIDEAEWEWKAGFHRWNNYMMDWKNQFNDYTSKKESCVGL
Electrophorus electricus (ee) AChE, sequence (O42275 whole entry, looked up): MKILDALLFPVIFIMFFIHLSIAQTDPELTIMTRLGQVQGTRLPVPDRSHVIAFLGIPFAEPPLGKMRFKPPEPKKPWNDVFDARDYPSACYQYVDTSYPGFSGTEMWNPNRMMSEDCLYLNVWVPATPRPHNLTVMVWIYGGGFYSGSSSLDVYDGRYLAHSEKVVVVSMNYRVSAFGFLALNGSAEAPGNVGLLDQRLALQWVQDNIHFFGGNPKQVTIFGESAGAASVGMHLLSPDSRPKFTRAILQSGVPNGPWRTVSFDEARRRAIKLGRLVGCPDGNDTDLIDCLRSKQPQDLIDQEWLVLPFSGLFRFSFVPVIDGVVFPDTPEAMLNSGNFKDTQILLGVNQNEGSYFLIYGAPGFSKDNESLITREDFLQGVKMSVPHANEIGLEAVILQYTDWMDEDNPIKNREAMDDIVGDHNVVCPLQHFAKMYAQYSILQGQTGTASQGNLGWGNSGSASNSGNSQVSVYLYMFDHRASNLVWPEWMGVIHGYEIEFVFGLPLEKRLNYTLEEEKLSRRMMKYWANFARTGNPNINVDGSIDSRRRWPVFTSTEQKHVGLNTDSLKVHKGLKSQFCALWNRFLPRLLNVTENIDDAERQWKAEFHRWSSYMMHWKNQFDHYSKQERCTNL

For `CC1=CC2Cc3nc4cc(Cl)ccc4c(NCCCCCCCCNC(=O)c4cc(O)c5c(c4)C(=O)c4cccc(O)c4C5=O)c3C(C1)C2` (racemic) [(±)-(Ia)•HCl, (±)-N-{8-[(3-chloro-6,7,10,11-tetrahydro-9-methyl-7,11-methanocycloocta[b]quinolin-12-yl)amino]octyl}-9,10-dihydro-4,5-dihydroxy-9,10-dioxoanthracene-2-carboxamide], the “Aβ1-42 self-induced aggregation (%)” value (Aβ1-42) was 33.1 ± 5.4%, the “AChE-induced Aβ1-40 aggregation (%)” value [1] was 44.7 ± 8.4% and the IC50 (β-Secretase (BACE-1)) was 980 ± 200 nM. For the same molecule, the IC50 (human serum BChE) was 350 ± 17 nM and the IC50 [2] was 88.6 ± 6.7 nM.
For `CC1=CC2Cc3nc4cc(Cl)ccc4c(NCCCCCCCCCCNC(=O)c4cc(O)c5c(c4)C(=O)c4cccc(O)c4C5=O)c3C(C1)C2` (racemic) [(±)-(Ic)•HCl, (±)-N-{10-[(3-chloro-6,7,10,11-tetrahydro-9-methyl-7,11-methanocycloocta[b]quinolin-12-yl)amino]decyl}-9,10-dihydro-4,5-dihydroxy-9,10-dioxoanthracene-2-carboxamide], the “Aβ1-42 self-induced aggregation (%)” value (Aβ1-42) was 40.9 ± 4.4%, the “AChE-induced Aβ1-40 aggregation (%)” value [1] was 29.2 ± 2.4% and the IC50 (β-Secretase (BACE-1)) was 1190 ± 200 nM. For the same molecule, the IC50 (human serum BChE) was 1100 ± 40 nM and the IC50 [2] was 46.7 ± 2.4 nM.
`CC1=CC2Cc3nc4cc(Cl)ccc4c(NCc4ccc(CNC(=O)c5cc(O)c6c(c5)C(=O)c5cccc(O)c5C6=O)cc4)c3C(C1)C2` (racemic) [(±)-(Ie)•HCl, (±)-N-{4-{[(3-chloro-6,7,10,11-tetrahydro-9-methyl-7,11-methanocycloocta[b]quinolin-12-yl)amino]methyl}benzyl}-9,10-dihydro-4,5-dihydroxy-9,10-dioxoanthracene-2-carboxamide] was tested, and the “Aβ1-42 self-induced aggregation (%)” value (Aβ1-42) was 32.4 ± 3.6%, the “AChE-induced Aβ1-40 aggregation (%)” value [1] was 35.2 ± 1.8% and the IC50 (β-Secretase (BACE-1)) was 2020 ± 400 nM. The IC50 (human serum BChE) was 510 ± 20 nM and the IC50 ([2]; read-out: IC50 eeAChE) was 60 ± 7.5 nM.
In the case of `CC1=CC2Cc3nc4cc(Cl)ccc4c(NCCCCCCCCCCCNC(=O)c4cc(O)c5c(c4)C(=O)c4cccc(O)c4C5=O)c3C(C1)C2` (racemic) [(±)-(Id)•HCl, (±)-N-{11-[(3-chloro-6,7,10,11-tetrahydro-9-methyl-7,11-methanocycloocta[b]quinolin-12-yl)amino]undecyl}-9,10-dihydro-4,5-dihydroxy-9,10-dioxoanthracene-2-carboxamide], the “Aβ1-42 self-induced aggregation (%)” value (Aβ1-42) is reported as 35.3 ± 4.0%, the “AChE-induced Aβ1-40 aggregation (%)” value [1] is reported as 38.2 ± 2.6% and the IC50 (β-Secretase (BACE-1)) is reported as 1200 ± 100 nM. For the same molecule, the IC50 (human serum BChE) was 645 ± 67 nM and the IC50 ([2]; read-out: IC50 eeAChE) was 16.3 ± 2.3 nM.
`CC1=C[C@@H]2Cc3nc4cc(Cl)ccc4c(N)c3[C@H](C1)C2.Cl` [(−)-Huprine Y•HCl, huprine Y, reference compound] was tested, and the “Aβ1-42 self-induced aggregation (%)” value (Aβ1-42) was 11.5 ± 5.2%, the “AChE-induced Aβ1-40 aggregation (%)” value [1] was 24.7 ± 1.3% and the “BACE-1 % inhibition at 5 μM” value (β-Secretase (BACE-1); 5 μM) was “(14.0 ± 0.1% at”. For the same molecule, the IC50 (β-Secretase (BACE-1); read-out: BACE-1 IC50) was greater than 5000 nM, the IC50 (human serum BChE; read-out: IC50 hBChE) was 222 ± 17 nM and the IC50 ([2]; read-out: IC50 eeAChE) was 0.06 ± 0.01 nM.
For “huprine Y [(±)-Huprine Y•HCl, reference compound]”, the “AChE-induced Aβ1-40 aggregation (%)” value [1] was 17.1 ± 4.5% and the IC50 ([2]; read-out: IC50 eeAChE) was 0.08 ± 0.01 nM.
`O=C(O)c1cc(O)c2c(c1)C(=O)c1cccc(O)c1C2=O` [Rhein, rhein, reference compound] showed an IC50 (human serum BChE; read-out: IC50 hBChE) of 17000 ± 4220 nM and an IC50 [2] of 637 ± 87 nM.
With `CC1=CC2Cc3nc4cc(Cl)ccc4c(NCCCCCCCCCNC(=O)c4cc(O)c5c(c4)C(=O)c4cccc(O)c4C5=O)c3C(C1)C2` (racemic) [(±)-(Ib)•HCl, (±)-N-{9-[(3-chloro-6,7,10,11-tetrahydro-9-methyl-7,11-methanocycloocta[b]quinolin-12-yl)amino]nonyl}-9,10-dihydro-4,5-dihydroxy-9,10-dioxoanthracene-2-carboxamide] the “Aβ1-42 self-induced aggregation (%)” value (Aβ1-42) was 38.0 ± 4.6%, the “AChE-induced Aβ1-40 aggregation (%)” value [1] was 48.7 ± 8.4% and the IC50 (β-Secretase (BACE-1)) was 120 ± 100 nM. It also gave an IC50 [2] of 32.6 ± 1.7 nM.
For `CC1=C[C@@H]2Cc3nc4cc(Cl)ccc4c(N)c3[C@H](C1)C2.Cl` [(+)-Huprine Y•HCl, huprine Y, reference compound], the “Aβ1-42 self-induced aggregation (%)” value (Aβ1-42) was 13.2 ± 1.9%, the “AChE-induced Aβ1-40 aggregation (%)” value [1] was 9.1 ± 3.6% and the IC50 (β-Secretase (BACE-1); read-out: BACE-1 IC50) was greater than 5000 nM. The IC50 (human serum BChE; read-out: IC50 hBChE) was 170 ± 17 nM and the IC50 ([2]; read-out: IC50 eeAChE) was 373 ± 50 nM.
